# Measured values taken from US9931287B2, “Simple micro-particulate suspension of behentrimonium chloride with favorable distributive and adsorptive properties” (Formula XO, Inc., priority 2013, dated 2018).
# Key:
# [1] = Appearance of solutions after cooling to room temperature; assay type: physicochemical; conditions: cooled from 85° C. to room temperature
# Method: A solution of BC is prepared by adding 20 grams BTMC-85 (Mason chemical company, 80% active by weight) to 330 ml of water and heating to 85° C. 50 grams of DPLC (SL-5, Mason chemical company, 35% active by weight) is added. The solution is clear and a slight yellow in color. A solution of BC is prepared in water as above but without addition of DPLC. Both solutions are cooled to room temperature.
# [2] = Spraying of formulations onto surface of a pan of water (dilution stability of aggregates); assay type: physicochemical; conditions: mixed vigorously, sprayed onto surface of a pan of water at room temperature (20° C.)
# Method: The two formulations are each mixed vigorously to disperse their contents and then sprayed onto the surface of a pan of water at room temperature (20° C.).
# [3] = Spraying onto a clear glass surface held perpendicular to the ground (retention); assay type: physicochemical; conditions: sprayed on clear glass held perpendicular to the ground; same BC concentration
# Description: A BC/DPLC suspension prepared as in Example 1 and a BC solution (at the same concentration) are sprayed on to a clear glass surface held perpendicular to the ground. The liquids run freely downward. […] This teaches that spraying of the BC/DPLC formulation achieves the desired benefit, as expected in its use on hair and skin.
# wet hair of individuals = assay: Spraying onto the wet hair of individuals; assay type: in vivo; conditions: sprayed onto wet hair, left on while hair dried, combed and brushed while damp
# Method: A suspension of BC/DPLC was prepared as described in Example 1. It was sprayed onto the wet hair of individuals and left on while the hair dried. The hair was combed and brushed while still damp.
# A solution of BC, equal in the concentration BC as in Example 1, was also sprayed on the wet hair of an individual, as described above.
smiles,measurement,setting,value
"CCCCCCCCCCCCCCCCCCCCCC[N+](C)(C)C [BC, Behentrimonium chloride (N,N,N-trimethyldocosan-1-aminium chloride]",appearance of solution after cooling,[1],forms a uniform milky suspension
same,behaviour on dilution in water,[2],"gradually diffuses down into the water layer resulting in a nearly clear, transparent solution"
same,appearance of glass surface after liquid runs off,[3],clear
same,feel of hair,wet hair of individuals,"oily, and lacked the feel and management properties of the BC/DPLC formulation"
